Some test systems named below: HOP-92 NSCLC; HL-60(TB) leukemia; SR leukemia; SN12C renal; NCI/ADR-RES ovarian; M14 melanoma; KM12 colon; MCF7 breast; OVCAR-3 ovarian; SK-MEL-2 melanoma.
Test in all cases: inhibition of tumour cell growth, NCI panel, 48 h

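Method: 48-hour compound exposure of cells in 96-well plates, five concentrations, linear interpolation of endpoints. TGI: total growth inhibition.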

The source of these data is PubChem BioAssay (NCI).

Consider `COc1cc(CC2c3cc(OC)c(OC)cc3CCN2C)c(Oc2cc3c(cc2OC)-c2c(O)c(OC)cc4c2C(C3)N(C)CC4)cc1OC` (stereo not given), for which the TGI in the assay on HOP-92 NSCLC worked out at 32.6 µM; with HL-60(TB) leukemia, 17.9 µM; in the assay on SR leukemia, 17.5 µM; in the assay with SN12C renal it was 42 µM; with NCI/ADR-RES ovarian it was 43.9 µM; in the assay on M14 melanoma, 22.8 µM. The TGI in the assay on KM12 colon was 31.3 µM; in the assay with MCF7 breast, 29.1 µM; in the assay on OVCAR-3 ovarian it was above 100 µM; with SK-MEL-2 melanoma, 58.5 µM.

Regarding `CC(C)c1ccc(/C=C2\CSCC3=C2NC(=S)NC3c2ccc(C(C)C)cc2)cc1` (stereo not given), the TGI in the assay on HOP-92 NSCLC, in the assay on HL-60(TB) leukemia, in the assay on SR leukemia, in the assay on SN12C renal, in the assay with NCI/ADR-RES ovarian and in the assay on M14 melanoma was above 100 µM in each case. Moreover, the TGI in the assay on KM12 colon, in the assay on MCF7 breast, in the assay on OVCAR-3 ovarian and with SK-MEL-2 melanoma was above 100 µM in each case.

Turning to `CCOC(=O)CNC(=O)C(C)NC(=O)C(NC(=O)CC(c1ncc[nH]1)c1ncc[nH]1)C(C)CC` (stereo not given), the TGI with HOP-92 NSCLC, in the assay on HL-60(TB) leukemia, in the assay with SR leukemia, with SN12C renal, with NCI/ADR-RES ovarian and in the assay on M14 melanoma was above 100 µM in each case. In addition, the TGI in the assay with KM12 colon, in the assay on MCF7 breast, in the assay on OVCAR-3 ovarian and in the assay with SK-MEL-2 melanoma was above 100 µM in each case.

Consider `O=c1[nH]c(=O)n(Cc2ccccc2CO)cc1Sc1ccccc1`, for which the TGI is above 100 µM with HOP-92 NSCLC; above 100 µM in the assay with HL-60(TB) leukemia; above 100 µM in the assay with SR leukemia; above 100 µM with SN12C renal; 81 µM with NCI/ADR-RES ovarian; 41.2 µM with M14 melanoma. For the same compound, the TGI in the assay on KM12 colon is above 100 µM; with MCF7 breast, above 100 µM; in the assay on OVCAR-3 ovarian, 42.2 µM; in the assay with SK-MEL-2 melanoma, 45.8 µM.

In the case of `CCOc1nc(-c2ccccc2)cc(-c2ccc(N3CCOCC3)cc2)c1C#N`, the TGI with HOP-92 NSCLC, in the assay with HL-60(TB) leukemia, in the assay with SR leukemia, in the assay with SN12C renal, in the assay on NCI/ADR-RES ovarian and in the assay on M14 melanoma was above 100 µM each time. For the same compound, the TGI in the assay on KM12 colon, in the assay on MCF7 breast, with OVCAR-3 ovarian and in the assay with SK-MEL-2 melanoma was above 100 µM throughout.

On to `CN(C)CCNC(=O)c1cccc2nc3c(nc12)-c1ccccc1C3=O`, for which the TGI in the assay on HOP-92 NSCLC was 40.9 µM; with HL-60(TB) leukemia it was 22.7 µM; with SR leukemia it was above 21.5 µM; in the assay on SN12C renal, 28.9 µM; with NCI/ADR-RES ovarian it was 39.3 µM; in the assay with M14 melanoma it was 31.9 µM. Moreover, the TGI is 33.2 µM in the assay with KM12 colon, 24.3 µM with MCF7 breast, 43.2 µM with OVCAR-3 ovarian and 32.4 µM in the assay on SK-MEL-2 melanoma.

`CNC(=O)c1cc(NC(=O)N(CCC#N)CCN(C(=O)N[C@@H](Cc2ccccc2)C(=O)N[C@@H](CC(C)C)C(=O)NC)c2ccccc2)ccc1OC`: the TGI with HOP-92 NSCLC is 71.7 µM; with HL-60(TB) leukemia it was above 100 µM; in the assay with SR leukemia, 68.9 µM; in the assay with SN12C renal it was above 85.1 µM; in the assay with NCI/ADR-RES ovarian it was above 100 µM; with M14 melanoma, above 100 µM. Moreover, the TGI in the assay with KM12 colon was above 100 µM; in the assay on MCF7 breast, above 100 µM; with OVCAR-3 ovarian it was above 100 µM; with SK-MEL-2 melanoma, above 74.5 µM.

Regarding `O=C(OCc1ccccc1)C1(N2CN(C3(C(=O)OCc4ccccc4)CCCC3)CN(C3(C(=O)OCc4ccccc4)CCCC3)C2)CCCC1`, the TGI with HOP-92 NSCLC, in the assay with HL-60(TB) leukemia, in the assay on SR leukemia, with SN12C renal, in the assay with NCI/ADR-RES ovarian and in the assay on M14 melanoma was above 10 µM throughout. Moreover, the TGI with KM12 colon, with MCF7 breast, in the assay with OVCAR-3 ovarian and in the assay on SK-MEL-2 melanoma was above 10 µM in each case.

For `CCOC(=O)/C=C(/C(=O)OCC)n1cc(C)c(=O)n(Cc2cn(COCCOC(C)=O)nn2)c1=O`, the TGI with HOP-92 NSCLC is 28.8 µM; in the assay on HL-60(TB) leukemia, 84 µM; in the assay with SR leukemia it was above 94.9 µM; in the assay with SN12C renal, 59.8 µM; in the assay with NCI/ADR-RES ovarian it was 67.9 µM; in the assay with M14 melanoma it was above 100 µM. Also, the TGI in the assay on KM12 colon is above 62.9 µM; with MCF7 breast it was 43.5 µM; with OVCAR-3 ovarian, 56.1 µM; in the assay on SK-MEL-2 melanoma, above 100 µM.

As to `O=C1c2c(nc3ccccc3c2-c2ccccc2)CN1Nc1ccccn1`, the TGI with HOP-92 NSCLC is above 79.4 µM; in the assay on HL-60(TB) leukemia, above 100 µM; with SR leukemia, above 100 µM; with SN12C renal, above 100 µM; with NCI/ADR-RES ovarian, above 100 µM; in the assay with M14 melanoma, above 100 µM. The TGI in the assay with KM12 colon, in the assay with MCF7 breast, in the assay with OVCAR-3 ovarian and with SK-MEL-2 melanoma was above 100 µM in each case.
